system: NL-RLuc virus; experiment: Inhibition of HIV replication (NL-RLuc reporter virus in MT-2 cells, luciferase readout); format: cell-based; details: Human immunodeficiency virus 1, MT2, 120 h, read-out: Activity
Summary of the method: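 MT-2 cells infected with NL4-3-derived NL-RLuc reporter virus (Renilla luciferase replacing part of nef) with serial compound dilutions, RPMI 1640 + 10% FBS; 5 days. Growth by luciferase; EC50 from median effect equation, ≥2 experiments.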

Row | SMILES | EC50
1 | Cc1nc(C)c([C@H](OC(C)(C)C)C(=O)O)c(N2CCC(C)(C)CC2)c1-c1ccc2c(c1)CCN(Cc1ccc(C3(C#N)CC3)cc1)C2 [Compound 162, (S)-2-(tert-butoxy)-2-(5-(2-(4-(1-cyanocyclopropyl)benzyl)-1,2,3,4-tetrahydroisoquinolin-6-yl)-4-(4,4-dimethylpiperidin-1-yl)-2,6-dimethylpyridin-3-yl)acetic acid] | < 0.1 µM
2 | Cc1nc(C)c([C@H](OC(C)(C)C)C(=O)O)c(N2CCC(C)(C)CC2)c1-c1ccc2c(c1)CCN(Cc1cc(Cl)cc(Cl)c1)C2 [Compound 26, (S)-2-(tert-butoxy)-2-(5-(2-(3,5-dichlorobenzyl)-1,2,3,4-tetrahydroisoquinolin-6-yl)-4-(4,4-dimethylpiperidin-1-yl)-2,6-dimethylpyridin-3-yl)acetic acid] | < 0.1 µM
3 | Cc1nc(C)c([C@H](OC(C)(C)C)C(=O)O)c(N2CCC(C)(C)CC2)c1-c1ccc2c(c1)CCN(Cc1cc(C(F)(F)F)ccc1F)C2 [Compound 70, (S)-2-(tert-butoxy)-2-(4-(4,4-dimethylpiperidin-1-yl)-5-(2-(2-fluoro-5-(trifluoromethyl)benzyl)-1,2,3,4-tetrahydroisoquinolin-6-yl)-2,6-dimethylpyridin-3-yl)acetic acid] | < 0.1 µM
4 | Cc1cc(CN2CCc3cc(-c4c(C)nc(C)c([C@H](OC(C)(C)C)C(=O)O)c4N4CCC(C)(C)CC4)ccc3C2)ccc1Cl [Compound 134, (S)-2-(tert-butoxy)-2-(5-(2-(4-chloro-3-methylbenzyl)-1,2,3,4-tetrahydroisoquinolin-6-yl)-4-(4,4-dimethylpiperidin-1-yl)-2,6-dimethylpyridin-3-yl)acetic acid] | < 0.1 µM
5 | Cc1cccc(CN2CCc3cc(-c4c(C)nc(C)c([C@H](OC(C)(C)C)C(=O)O)c4N4CCC(C)(C)CC4)ccc3C2)c1 [Compound 3, (S)-2-(tert-butoxy)-2-(4-(4,4-dimethylpiperidin-1-yl)-2,6-dimethyl-5-(2-(3-methylbenzyl)-1,2,3,4-tetrahydroisoquinolin-6-yl)pyridin-3-yl)acetic acid] | < 0.1 µM
6 | Cc1nc(C)c([C@H](OC(C)(C)C)C(=O)O)c(N2CCC(C)(C)CC2)c1-c1ccc2c(c1)CCN(Cc1ccccc1OC(F)(F)F)C2 [Compound 123, (S)-2-(tert-butoxy)-2-(4-(4,4-dimethylpiperidin-1-yl)-2,6-dimethyl-5-(2-(2-(trifluoromethoxy)benzyl)-1,2,3,4-tetrahydroisoquinolin-6-yl)pyridin-3-yl)acetic acid] | < 0.1 µM
7 | COc1cc(C)c(CN2CCc3cc(-c4c(C)nc(C)c([C@H](OC(C)(C)C)C(=O)O)c4N4CCC(C)(C)CC4)ccc3C2)cc1C [Compound 148, (S)-2-(tert-butoxy)-2-(4-(4,4-dimethylpiperidin-1-yl)-5-(2-(4-methoxy-2,5-dimethylbenzyl)-1,2,3,4-tetrahydroisoquinolin-6-yl)-2,6-dimethylpyridin-3-yl)acetic acid] | < 0.1 µM
8 | Cc1cc(F)cc(CN2CCc3cc(-c4c(C)nc(C)c([C@H](OC(C)(C)C)C(=O)O)c4N4CCC(C)(C)CC4)ccc3C2)c1 [Compound 46, (S)-2-(tert-butoxy)-2-(4-(4,4-dimethylpiperidin-1-yl)-5-(2-(3-fluoro-5-methylbenzyl)-1,2,3,4-tetrahydroisoquinolin-6-yl)-2,6-dimethylpyridin-3-yl)acetic acid] | < 0.1 µM
9 | COc1cccc(CN2CCc3cc(-c4c(C)nc(C)c([C@H](OC(C)(C)C)C(=O)O)c4N4CCC(C)(C)CC4)ccc3C2)c1 [Compound 6, (S)-2-(tert-butoxy)-2-(4-(4,4-dimethylpiperidin-1-yl)-5-(2-(3-methoxybenzyl)-1,2,3,4-tetrahydroisoquinolin-6-yl)-2,6-dimethylpyridin-3-yl)acetic acid] | < 0.1 µM
10 | Cc1nc(C)c([C@H](OC(C)(C)C)C(=O)O)c(N2CCC(C)(C)CC2)c1-c1ccc2c(c1)CCN(Cc1cccc(Cl)c1)C2 [Compound 28, (S)-2-(tert-butoxy)-2-(5-(2-(3-chlorobenzyl)-1,2,3,4-tetrahydroisoquinolin-6-yl)-4-(4,4-dimethylpiperidin-1-yl)-2,6-dimethylpyridin-3-yl)acetic acid] | < 0.1 µM
11 | Cc1nc(C)c([C@H](OC(C)(C)C)C(=O)O)c(N2CCC(C)(C)CC2)c1-c1ccc2c(c1)CCN(Cc1cccc(OC(C)C)c1)C2 [Compound 154, (S)-2-(tert-butoxy)-2-(4-(4,4-dimethylpiperidin-1-yl)-5-(2-(3-isopropoxybenzyl)-1,2,3,4-tetrahydroisoquinolin-6-yl)-2,6-dimethylpyridin-3-yl)acetic acid] | < 0.1 µM
12 | COc1cc(F)cc(F)c1CN1CCc2cc(-c3c(C)nc(C)c([C@H](OC(C)(C)C)C(=O)O)c3N3CCC(C)(C)CC3)ccc2C1 [Compound 107, (S)-2-(tert-butoxy)-2-(5-(2-(2,4-difluoro-6-methoxybenzyl)-1,2,3,4-tetrahydroisoquinolin-6-yl)-4-(4,4-dimethylpiperidin-1-yl)-2,6-dimethylpyridin-3-yl)acetic acid] | < 0.1 µM
13 | COc1c(CN2CCc3cc(-c4c(C)nc(C)c([C@H](OC(C)(C)C)C(=O)O)c4N4CCC(C)(C)CC4)ccc3C2)cccc1C(F)(F)F [Compound 98, (S)-2-(tert-butoxy)-2-(4-(4,4-dimethylpiperidin-1-yl)-5-(2-(2-methoxy-3-(trifluoromethyl)benzyl)-1,2,3,4-tetrahydroisoquinolin-6-yl)-2,6-dimethylpyridin-3-yl)acetic acid] | < 0.1 µM
14 | Cc1nc(C)c([C@H](OC(C)(C)C)C(=O)O)c(N2CCC(C)(C)CC2)c1-c1ccc2c(c1)CCN(Cc1ccc(F)c(OC(F)(F)F)c1)C2 [Compound 120, (S)-2-(tert-butoxy)-2-(4-(4,4-dimethylpiperidin-1-yl)-5-(2-(4-fluoro-3-(trifluoromethoxy)benzyl)-1,2,3,4-tetrahydroisoquinolin-6-yl)-2,6-dimethylpyridin-3-yl)acetic acid] | < 0.1 µM
15 | CCOc1ccc(CN2CCc3cc(-c4c(C)nc(C)c([C@H](OC(C)(C)C)C(=O)O)c4N4CCC(C)(C)CC4)ccc3C2)cc1 [Compound 149, (S)-2-(tert-butoxy)-2-(4-(4,4-dimethylpiperidin-1-yl)-5-(2-(4-ethoxybenzyl)-1,2,3,4-tetrahydroisoquinolin-6-yl)-2,6-dimethylpyridin-3-yl)acetic acid] | < 0.1 µM
16 | Cc1ccc(F)c(CN2CCc3cc(-c4c(C)nc(C)c([C@H](OC(C)(C)C)C(=O)O)c4N4CCC(C)(C)CC4)ccc3C2)c1F [Compound 48, (S)-2-(tert-butoxy)-2-(5-(2-(2,6-difluoro-3-methylbenzyl)-1,2,3,4-tetrahydroisoquinolin-6-yl)-4-(4,4-dimethylpiperidin-1-yl)-2,6-dimethylpyridin-3-yl)acetic acid] | < 0.1 µM
17 | Cc1cccc(C)c1CN1CCc2cc(-c3c(C)nc(C)c([C@H](OC(C)(C)C)C(=O)O)c3N3CCC(C)(C)CC3)ccc2C1 [Compound 33, (S)-2-(tert-butoxy)-2-(5-(2-(2,6-dimethylbenzyl)-1,2,3,4-tetrahydroisoquinolin-6-yl)-4-(4,4-dimethylpiperidin-1-yl)-2,6-dimethylpyridin-3-yl)acetic acid] | < 0.1 µM
18 | Cc1cc(C#N)ccc1CN1CCc2cc(-c3c(C)nc(C)c([C@H](OC(C)(C)C)C(=O)O)c3N3CCC(C)(C)CC3)ccc2C1 [Compound 65, (S)-2-(tert-butoxy)-2-(5-(2-(4-cyano-2-methylbenzyl)-1,2,3,4-tetrahydroisoquinolin-6-yl)-4-(4,4-dimethylpiperidin-1-yl)-2,6-dimethylpyridin-3-yl)acetic acid] | < 0.1 µM
19 | Cc1nc(C)c([C@H](OC(C)(C)C)C(=O)O)c(N2CCC(C)(C)CC2)c1-c1ccc2c(c1)CCN(Cc1cc(F)cc(Cl)c1)C2 [Compound 43, (S)-2-(tert-butoxy)-2-(5-(2-(3-chloro-5-fluorobenzyl)-1,2,3,4-tetrahydroisoquinolin-6-yl)-4-(4,4-dimethylpiperidin-1-yl)-2,6-dimethylpyridin-3-yl)acetic acid] | < 0.1 µM
20 | Cc1nc(C)c([C@H](OC(C)(C)C)C(=O)O)c(N2CCC(C)(C)CC2)c1-c1ccc2c(c1)CCN(Cc1ccccc1Cl)C2 [Compound 55, (S)-2-(tert-butoxy)-2-(5-(2-(2-chlorobenzyl)-1,2,3,4-tetrahydroisoquinolin-6-yl)-4-(4,4-dimethylpiperidin-1-yl)-2,6-dimethylpyridin-3-yl)acetic acid] | < 0.1 µM
21 | CCOc1cccc(CN2CCc3cc(-c4c(C)nc(C)c([C@H](OC(C)(C)C)C(=O)O)c4N4CCC(C)(C)CC4)ccc3C2)c1 [Compound 103, (S)-2-(tert-butoxy)-2-(4-(4,4-dimethylpiperidin-1-yl)-5-(2-(3-ethoxybenzyl)-1,2,3,4-tetrahydroisoquinolin-6-yl)-2,6-dimethylpyridin-3-yl)acetic acid] | < 0.1 µM
22 | Cc1nc(C)c([C@H](OC(C)(C)C)C(=O)O)c(N2CCC(C)(C)CC2)c1-c1ccc2c(c1)CCN(Cc1cc(Cl)ccc1F)C2 [Compound 42, (S)-2-(tert-butoxy)-2-(5-(2-(5-chloro-2-fluorobenzyl)-1,2,3,4-tetrahydroisoquinolin-6-yl)-4-(4,4-dimethylpiperidin-1-yl)-2,6-dimethylpyridin-3-yl)acetic acid] | < 0.1 µM
23 | CCOc1cc(CN2CCc3cc(-c4c(C)nc(C)c([C@H](OC(C)(C)C)C(=O)O)c4N4CCC(C)(C)CC4)ccc3C2)c(F)cc1F [Compound 126, (S)-2-(tert-butoxy)-2-(4-(4,4-dimethylpiperidin-1-yl)-5-(2-(5-ethoxy-2,4-difluorobenzyl)-1,2,3,4-tetrahydroisoquinolin-6-yl)-2,6-dimethylpyridin-3-yl)acetic acid] | < 0.1 µM
24 | Cc1nc(C)c([C@H](OC(C)(C)C)C(=O)O)c(N2CCC(C)(C)CC2)c1-c1ccc2c(c1)CCN(Cc1cc(Cl)cc(Cl)c1OCc1ccccc1)C2 [Compound 85, (S)-2-(5-(2-(2-(benzyloxy)-3,5-dichlorobenzyl)-1,2,3,4-tetrahydroisoquinolin-6-yl)-4-(4,4-dimethylpiperidin-1-yl)-2,6-dimethylpyridin-3-yl)-2-(tert-butoxy)acetic acid] | < 0.1 µM

same assay, conditions: Human immunodeficiency virus 1, MT2, 120 h, read-out: EC50 μM

Row | SMILES | EC50
25 | Cc1cc(CN2CCc3cc(-c4c(C)nc(C)c([C@H](OC(C)(C)C)C(=O)O)c4N4CCC(C)(C)CC4)ccc3C2)ccc1Cl [Compound 134, (S)-2-(tert-butoxy)-2-(5-(2-(4-chloro-3-methylbenzyl)-1,2,3,4-tetrahydroisoquinolin-6-yl)-4-(4,4-dimethylpiperidin-1-yl)-2,6-dimethylpyridin-3-yl)acetic acid] | 0.012 µM
26 | Cc1nc(C)c([C@H](OC(C)(C)C)C(=O)O)c(N2CCC(C)(C)CC2)c1-c1ccc2c(c1)CCN(Cc1ccccc1OC(F)(F)F)C2 [Compound 123, (S)-2-(tert-butoxy)-2-(4-(4,4-dimethylpiperidin-1-yl)-2,6-dimethyl-5-(2-(2-(trifluoromethoxy)benzyl)-1,2,3,4-tetrahydroisoquinolin-6-yl)pyridin-3-yl)acetic acid] | 0.011 µM
27 | CCOc1cccc(CN2CCc3cc(-c4c(C)nc(C)c([C@H](OC(C)(C)C)C(=O)O)c4N4CCC(C)(C)CC4)ccc3C2)c1 [Compound 103, (S)-2-(tert-butoxy)-2-(4-(4,4-dimethylpiperidin-1-yl)-5-(2-(3-ethoxybenzyl)-1,2,3,4-tetrahydroisoquinolin-6-yl)-2,6-dimethylpyridin-3-yl)acetic acid] | 0.012 µM

Reference: patent publication US10189816B2, “Substituted pyridines as inhibitors of human immunodeficiency virus replication” (priority 2015, dated 2019)
